Measurements taken from patent US20050255084A1, “Use of a half-transporter protein of the abcg-family for selecting cells and in gene therapy” (SOLVO BIOTECHNOLOGY, priority 2001, published 2005).
≈ marks a conversion by molar mass, not a printed value.

Assays:
[1] = Cytotoxicity assay (cell survival after 4 days), vector control; assay type: cell-based; conditions: human, mock-transduced (vector control) PLB985 cells
Method: (§1) Panel C: Cytotoxicity assay (cell survival after 4 days) of PLB985 cells expressing the ABCG2 variants. • ∘: Control, mock-transduced PLB985s; • Δ: PLB985s expressing ABCG2-R, selected by 10 nM MX; • ◯: PLB985s expressing ABCG2-G, selected by 100 nM MX.
(§2) This assay was performed in 24-well plates, cells seeded at a density of 200,000 cells/well. Cytotoxic drugs were added at the concentrations indicated and the cells were cultured for 4 days at 37° C. Total and live cell numbers were determined by flow cytometry after the addition of 2 μg/ml propidium-iodide, to identify dead cells.

[2] = test system: ABCG2-R (wild-type ABCG2); test: Cytotoxicity assay (cell survival after 4 days), wild-type ABCG2; assay type: cell-based; conditions: human, PLB985 cells expressing ABCG2-R (wild-type ABCG2), selected by 10 nM MX
Method: as §1, §2

ABCG2-G (R482G ABCG2) = test: Cytotoxicity assay (cell survival after 4 days), R482G ABCG2; assay type: cell-based; conditions: human, PLB985 cells expressing ABCG2-G (R482G ABCG2), selected by 100 nM MX
Method: as §1, §2

[3] = test system: mock-transduced PLB985 X-CGD cells; test: Mitoxantrone uptake assay, mock-transduced cells; assay type: cell-based, human; conditions: 10 μM FTC, 5 μM MX
Method: Cells were suspended in phenol red-free Hank's balanced salt solution, with additional pH stabilization by 20 mM phosphate buffer. Aliquots of the suspension, containing 3×10^5 cells, were incubated with or without the addition of 5 μM MX, and also with 5 μM MX+10 μM FTC, a specific inhibitor of ABCG2 (Rabindran et al., 2000; van Loevezijn et al., 2001). After one hour incubation at 37° C., the cells were washed with ice-cold medium, resuspended in ice-cold medium containing 21 g/ml propidium-iodide, and stored on ice until analysis by flow cytometry. Cellular MX values were determined at 635 nm excitation/661 nm emission wavelengths.

ABCG2-G [4] = biological target: T1, ABCG2-G (Homo sapiens, UniProt Q9UNQ0, R482G); conditions: 10 μM FTC, 5 μM MX; transduced cells pre-selected with 10 nM MX
T1 sequence (Q9UNQ0 whole entry R482G): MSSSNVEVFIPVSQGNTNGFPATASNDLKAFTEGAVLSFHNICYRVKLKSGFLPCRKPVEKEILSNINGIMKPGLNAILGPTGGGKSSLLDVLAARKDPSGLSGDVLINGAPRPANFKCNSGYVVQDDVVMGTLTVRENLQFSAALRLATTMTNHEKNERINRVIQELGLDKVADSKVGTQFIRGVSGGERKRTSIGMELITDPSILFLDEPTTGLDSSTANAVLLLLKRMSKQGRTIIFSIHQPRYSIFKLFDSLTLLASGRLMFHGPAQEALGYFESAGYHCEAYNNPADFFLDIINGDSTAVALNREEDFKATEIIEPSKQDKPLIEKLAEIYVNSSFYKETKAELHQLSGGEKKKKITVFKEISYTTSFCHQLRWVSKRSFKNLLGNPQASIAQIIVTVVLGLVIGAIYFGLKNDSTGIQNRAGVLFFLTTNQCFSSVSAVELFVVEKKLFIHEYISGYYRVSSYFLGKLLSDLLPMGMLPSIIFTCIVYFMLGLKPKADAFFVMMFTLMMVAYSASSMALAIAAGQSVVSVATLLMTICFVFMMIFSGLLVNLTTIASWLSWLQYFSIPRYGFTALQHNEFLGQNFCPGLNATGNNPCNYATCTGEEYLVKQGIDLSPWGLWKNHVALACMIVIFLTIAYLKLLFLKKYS
Method: (§3) Functional detection of ABCG2 expression was evaluated with a modified MX uptake assay of Robey et al. (Robey et al., 2001). Cells were suspended in phenol red-free Hank's balanced salt solution, with additional pH stabilization by 20 mM phosphate buffer. Aliquots of the suspension, containing 3×10^5 cells, were incubated with or without the addition of 5 μM MX, and also with 5 μM MX+10 μM FTC, a specific inhibitor of ABCG2 (Rabindran et al., 2000; van Loevezijn et al., 2001). After one hour incubation at 37° C., the cells were washed with ice-cold medium, resuspended in ice-cold medium containing 21 µg/ml propidium-iodide, and stored on ice until analysis by flow cytometry. Cellular MX values were determined at 635 nm excitation/661 nm emission wavelengths.

ABCG2-G [5] = biological target: T1, ABCG2-G; conditions: 10 μM FTC, 5 μM MX; ABCG2-G cells selected by 100 nM MX
Method: (§4) Panel B: Flow cytometry detection of mitoxantrone uptake (dotted lines: autofluorescence, solid thick lines: MX fluorescence, solid thin lines: MX fluorescence in the presence of the ABCG2-inhibitor, FTC). Part 1: Mock-transduced PLB985s; Part 2: PLB985s expressing ABCG2-R, selected by 10 nM MX; Part 3: PLB985s expressing ABCG2-G, selected by 100 nM MX.
as §3

ABCG2-R = ABCG2-R (Homo sapiens, UniProt Q9UNQ0); conditions: 10 μM FTC, 5 μM MX; ABCG2-R cells selected by 10 nM MX
Sequence of ABCG2-R (Q9UNQ0 whole entry): as the sequence (Q9UNQ0 whole entry R482G) above, with G482R counted along it
Method: as §4, §3

[6] = test system: transduced PLB985 X-CGD cells; test: Flow cytometry of gp91phox expression after drug selection; assay type: cell-based, human; conditions: 10 nM MX selection for four days; 40-48% before selection
Method: (§5) Transduced PLB985 cells were selected by stepwise increases in mitoxantrone or doxorubicin (DOX; other name: adriamycin) concentrations. Selection was started 5 days (in some cases: 7 days) after transduction; each drug concentration was applied for four days (in early experiments: 8 days). CD34+ cells were selected similarly but were first selected on day two after transduction.
(§6) Gp91^phox expression was measured by flow cytometry (Becton Dickinson FACS Calibur) by using the 7D5 antibody (provided by M. Nakamura (Nakamura et al., 1987) and phycoerythrin-labeled anti-mouse secondary antibody (GAM-PE, 250 times dilution, Sigma).

[7] = test system: human cord blood CD34+ cells; test: Suspension culture granulocyte differentiation with MX selection; assay type: cell-based; conditions: 5 nM MX selection
Description: as §5
Cell differentiation was induced by 0.5% dimethyl-formamide (DMF) in order to obtain granulocytes. In order to follow granulocyte differentiation, cells were labelled with monoclonal anti-CD11b/RPE antibody (Dako, Denmark), and staining was determined by flow cytometry. For the induction of differentiation in the case of normal CD34+ cells, both liquid suspension cultures and clonogenic progenitor assays were used. For suspension culture, fresh media, containing cytokines +G-CSF (50 ng/ml) were added to the cells 24 hours after transduction, and then the cells were incubated for 12-14 days at 37° C.

[8] = test system: human cord blood CD34+ cells; test: Colony-forming cell assay; assay type: cell-based; conditions: 5 nM MX
Method: In the colony-forming cell assay the cells were plated at a concentration of 250 cells/ml and 1250 cells/ml in Iscove's medium, containing 0.9% methylcellulose, 30% FCS, 1% bovine serum albumin, 1.4×10^−5M dithiothreitol, 5 ng/ml human recombinant IL-3, 25 ng/ml SCF, 10 ng/ml GM-CSF, 2 ng/ml G-CSF and 2U/ml erythropoietin, in the presence or absence of 5 nM mitoxantrone. After 14 days of incubation at 37° C., the colony forming cells were counted.

[9] = test system: mouse X-CGD KO -/- bone marrow cells; test: Cytotoxicity assay on mouse bone marrow cells; assay type: cell-based
Method: FIG. 8. Panel A Cytotoxicity assay (cell survival after four days) on transduced mouse X-CGD KO −/− bone marrow cells • ♦Control, non transduced cells • ▪Cells tranduced by SPsAGS vector carrying cDNA of ABCG2-G, unselected, • ▴Cells tranduced by SPsATS vector carrying cDNA of ABCG2-T, unselected.
as §2
(§7) Drug selection of the transduced cells, cytotoxic assay, immunodetection of gp91^phox, nitroblue tetrazolium test (NBT) were performed similar as in human CD34+ cells except using murine cytokines. In the colony assay 10 000 cells were plated in semisolid medium containing 0, 5 and 10 nM MX.

[10] = test system: mouse X-CGD KO -/- bone marrow cells; test: Flow cytometry of gp91phox expression in selected mouse bone marrow cells; assay type: cell-based; conditions: 5 days selection on 5 nM or 10 nM MX; SPsAGS transduced BM cells
Method: as §6, §7

[11] = test system: mouse X-CGD KO -/- bone marrow cells; test: Colony assay from mouse bone marrow cells; assay type: cell-based; conditions: 5 nM or 10 nM MX in semisolid medium
Method: In the colony assay 10 000 cells were plated in semisolid medium containing 0, 5 and 10 nM MX.

COc1cccc2c1C(=O)c1c(O)c3c(c(O)c1C2=O)C[C@@](O)(C(=O)CO)C[C@@H]3O[C@H]1C[C@H](N)[C@H](O)[C@H](C)O1 [ADR, doxorubicin]
IC50 at 4 days [1]: ~0.008 µg/mL (≈ 0.0147 µM)
IC50 at 4 days [2]: ~0.02 µg/mL (≈ 0.0368 µM)
IC50 at 4 days (ABCG2-G (R482G ABCG2)): ~0.25 µg/mL (≈ 0.46 µM)

COc1ccc2c3c([nH]c2c1)[C@H](C=C(C)C)N1C(=O)[C@@H]2CCCN2C(=O)[C@@H]1C3 [FTC, Fumitremorgin C]
effect on MX uptake [3]: no effect
sensitivity of MX uptake to the inhibitor (ABCG2-G [4]): fully sensitive
reversal of MX extrusion (ABCG2-G [5]): fully reversible
reversal of MX extrusion (ABCG2-R): fully reversible

O=C1c2c(O)ccc(O)c2C(=O)c2c(NCCNCCO)ccc(NCCNCCO)c21 [MX, mitoxantrone]
IC50 at 4 days [1]: ~0.01 µg/mL (≈ 0.0225 µM)
IC50 at 4 days [2]: 0.03 µg/mL (≈ 0.0675 µM)
IC50 at 4 days (ABCG2-G (R482G ABCG2)): 0.075 µg/mL (≈ 0.169 µM)
ratio of gp91phox-expressing cells after selection [6]: over 90%
level of CD15+ cells after selection ([7]; ABCG2-G transduced CD34+ cells): unchanged level of CD15+ cells
fate of mock-transduced cells in suspension culture ([7]; mock-transduced CD34+ cells): eliminated
decrease of CFC number ([8]; ABCG2-G transduced CD34+ cells): about 50%
colony formation ([8]; mock-transduced CD34+ cells): did not form colonies
survival of cells ([9]; 5 nM or more mitoxantron, non-transduced control BM cells): all non-transduced control cells died
transduced cells resistant to MX (surviving cells) ([9]; 5 or 10 nM mitoxantron, SPsAGS or SPsATS transduced, unselected BM cells): 15-20%
gp91phox-positive cells after selection [10]: > 80%
colony formation ([11]; ABCG2-G transduced BM cells): hardly formed any
decrease of CFC number ([11]; ABCG2-T transduced BM cells): about 80%
colony formation ([11]; non-transduced BM cells): did not form colonies
